Results: ChEMBL document CHEMBL3272079, “Synthesis and preliminary pharmacological activity of aminoalkoxy isosteres of glycolate ester anticholinergics” (J Med Chem, 1977)
Where a name gives a salt, the structure may show the parent alone. The source made the active and inactive calls. No cut-off for these calls is given here.

Columns and labels:
[1] = Octanol-phosphate buffer partition coefficient, Kp of the compound at pH 7.4; type: physicochemical
Oryctolagus cuniculus = assay: Central dopaminergic activity in New Zealand rabbit assessed as change in colonic temperature at 5 mg/kg, iv measured every 15 mins for 2 hrs by thermistor probe attached telethermometric analysis; type: functional, organism-based; set-up: dose 5 mg/kg
Rattus norvegicus [2] = species on record: Rattus norvegicus; settings: Wistar, Jejunum;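 for pD'2: muscarinic receptor antagonism measured as block of acetylcholine-evoked contraction in isolated jejunum, tissue exposed to test compound for 2 min before the acetylcholine challenge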
Description: Antagonist activity at muscarinic acetylcholine receptor in Wistar rat jejunum assessed as inhibition of acetylcholine-induced contraction preincubated for 2 mins followed by acetylcholine challenge

Rattus norvegicus [3] = species on record: Rattus norvegicus; assay: animal or person; type: functional; settings: Wistar, ip, route intraperitoneal
Description: Anticataleptic activity in albino Wistar rat assessed as inhibition of perphenazine-induced catatonia at 2 mg/kg, ip preincubated for 15 mins followed by perphenazine challenge measured at 3 hrs relative to control

Rattus norvegicus [4] = species on record: Rattus norvegicus; assay: animal or person; type: functional; settings: Wistar, ip, route intraperitoneal; remark: listed apart in the source
Description: Anticataleptic activity in albino Wistar rat assessed as inhibition of perphenazine-induced catatonia at 2 mg/kg, ip preincubated for 15 mins followed by perphenazine challenge measured at 2 hrs relative to control

Rattus norvegicus [5] = species on record: Rattus norvegicus; assay: animal or person; type: functional; settings: Wistar, ip, route intraperitoneal; remark: listed apart in the source
Description: Anticataleptic activity in albino Wistar rat assessed as inhibition of perphenazine-induced catatonia at 2 mg/kg, ip preincubated for 15 mins followed by perphenazine challenge measured at 0.5 hrs relative to control

Rattus norvegicus [6] = species on record: Rattus norvegicus; assay: animal or person; type: functional; settings: Wistar, ip, route intraperitoneal; remark: listed apart in the source
Description: Anticataleptic activity in albino Wistar rat assessed as inhibition of perphenazine-induced catatonia at 2 mg/kg, ip preincubated for 15 mins followed by perphenazine challenge measured at 1 hr relative to control

Compound	Kp [1]	Activity (Oryctolagus cuniculus)	pD'2 (Rattus norvegicus [2])	inhibition in vivo at 2 mg/kg (Rattus norvegicus [3]) [%]	inhibition in vivo at 2 mg/kg (Rattus norvegicus [4]) [%]	inhibition in vivo at 2 mg/kg (Rattus norvegicus [5]) [%]	inhibition in vivo at 2 mg/kg (Rattus norvegicus [6]) [%]
CCN(CC)CCOC(=O)C(O)(c1ccccc1)c1ccccc1.Cl	0.26	inactive	–	–	–	–	–
C[N+]1(C)CCC(OCC(O)(c2ccccc2)c2ccccc2)CC1	–	–	7.26	–	–	–	–
CN(C)CCOCC(O)(c1ccccc1)c1ccccc1	–	–	4.68	8	21	75	21
CN(C)CCCOCC(O)(c1ccccc1)c1ccccc1	–	–	5.02	17	54	100	71
CN1CCCC(OCC(O)(c2ccccc2)c2ccccc2)C1 (configuration not stated)	–	–	4.9	17	54	92	67
C=CCN(CC)CCOCC(O)(c1ccccc1)c1ccccc1	–	–	5.13	0	0	8	0
CN1[C@@H]2C[C@@H](OC(=O)[C@H](CO)c3ccccc3)C[C@H]1[C@@H]1O[C@@H]12 [SCOPOLAMINE HYDROBROMIDE]	–	–	5.31	71	83	96	96
CN1CCC(OCC(O)(c2ccccc2)c2ccccc2)CC1 [listing 1 of 3 here]	–	–	–	0	7	80	37
C=CCN(C)CCOCC(O)(c1ccccc1)c1ccccc1	–	–	4.09	0	17	79	25
CCN1CCCC(OCC(O)(c2ccccc2)c2ccccc2)C1 (configuration not stated)	–	–	4.95	0	0	12	0
CN1CCC(OCC(O)(c2ccccc2)c2ccccc2)CC1 [listing 2 of 3 here]	3.1	–	–	–	–	–	–
CN1CCC(OCC(O)(c2ccccc2)c2ccccc2)CC1 [listing 3 of 3 here]	–	–	6.24	–	–	–	–
CN1[C@@H]2CC[C@H]1C[C@H](OC(=O)C(CO)c1ccccc1)C2 (some centres not stated)	–	–	7.3	27	30	87	56
OC(COC1CN2CCC1CC2)(c1ccccc1)c1ccccc1 (configuration not stated)	–	inactive	6.58	48	56	96	85
CCN(CC)CCOCC(O)(c1ccccc1)c1ccccc1 [listing 1 of 3 here]	–	inactive	4.92	–	–	–	–
C[N+]12CCC(CC1)C(OCC(O)(c1ccccc1)c1ccccc1)C2 (configuration not stated)	–	–	6.18	–	–	–	–
CCN(CC)CCOCC(O)(c1ccccc1)c1ccccc1 [listing 2 of 3 here]	–	–	–	0	0	38	0
CCN(CC)CCOCC(O)(c1ccccc1)c1ccccc1 [listing 3 of 3 here]	5.6	–	–	–	–	–	–
CC[N+](C)(CC)CCOCC(O)(c1ccccc1)c1ccccc1	–	–	6.92	–	–	–	–
CN1CCC(OCC(O)(c2ccccc2)c2ccccc2)C1 (configuration not stated)	–	–	5.58	0	8	50	21
C[N+](C)(C)CCOCC(O)(c1ccccc1)c1ccccc1	–	–	5.49	–	–	–	–
CC[N+]1(C)CCCC(OCC(O)(c2ccccc2)c2ccccc2)C1 (configuration not stated)	–	–	5	–	–	–	–
C[N+]1(C)CCCC(OCC(O)(c2ccccc2)c2ccccc2)C1 (configuration not stated)	–	–	5.68	–	–	–	–
